Source: ChEMBL document CHEMBL1938371, “Discovery of AZD2932, a new Quinazoline Ether Inhibitor with high affinity for VEGFR-2 and PDGFR tyrosine kinases” (Bioorg Med Chem Lett, 2012)
Active and inactive are the calls of the source. No cut-off for these calls is given here.

Legend:
Cytochrome P450 2C9 = Cytochrome P450 2C9 (Homo sapiens, UniProt P11712); experiment: Inhibition of CYP2C9; format: ADME
[1] = Clearance in rat at 2 mg/kg; format: ADME, organism-based; design: dose 2 mg/kg; conditions: in vivo
Rattus norvegicus = experiment: Hepatic blood flow in rat at 0.5 to 2 mg/kg; format: ADME, organism-based, Liver; design: dose 0.5-2 mg/kg; conditions: in vivo
[2] = Clearance in dog at 2 mg/kg; format: ADME, organism-based, Canis lupus familiaris; design: dose 2 mg/kg; conditions: in vivo
Canis familiaris = experiment: Hepatic blood flow in dog at 0.5 to 2 mg/kg; format: ADME, organism-based, Canis lupus familiaris, Liver; design: dose 0.5-2 mg/kg; conditions: in vivo
[3] = Volume of distribution at steady state in rat at 2 mg/kg; format: ADME, organism-based; design: dose 2 mg/kg; conditions: in vivo, read-out: Vdss
[4] = Volume of distribution at steady state in dog at 2 mg/kg; format: ADME, organism-based, Canis lupus familiaris; design: dose 2 mg/kg; conditions: in vivo, read-out: Vdss
[5] = Terminal half life in rat at 2 mg/kg, iv; format: ADME, organism-based; design: dose 2 mg/kg, route intravenous; conditions: in vivo, read-out: beta t1/2 (converted)
[6] = Terminal half life in dog at 2 mg/kg, iv; format: ADME, organism-based, Canis lupus familiaris; design: dose 2 mg/kg, route intravenous; conditions: in vivo, read-out: beta t1/2 (converted)
[7] = Half life in rat at 2 mg/kg, po; format: ADME, organism-based; design: dose 2 mg/kg, route oral; conditions: in vivo
[8] = Half life in dog at 2 mg/kg, po; format: ADME, organism-based, Canis lupus familiaris; design: dose 2 mg/kg, route oral; conditions: in vivo
[9] = Oral bioavailability in rat at 2 to 5 mg/kg; format: ADME, organism-based; conditions: in vivo
[10] = Oral bioavailability in dog at 2 to 5 mg/kg; format: ADME, organism-based, Canis lupus familiaris; conditions: in vivo
[11] = Fraction unbound in human serum; format: ADME, cell-free
[12] = Fraction unbound in dog serum; format: ADME, cell-free, Canis lupus familiaris
[13] = target: Voltage-gated inwardly rectifying potassium channel KCNH2 (Homo sapiens, UniProt Q12809); experiment: Inhibition of human ERG
Chain of Voltage-gated inwardly rectifying potassium channel KCNH2 (Q12809 whole entry): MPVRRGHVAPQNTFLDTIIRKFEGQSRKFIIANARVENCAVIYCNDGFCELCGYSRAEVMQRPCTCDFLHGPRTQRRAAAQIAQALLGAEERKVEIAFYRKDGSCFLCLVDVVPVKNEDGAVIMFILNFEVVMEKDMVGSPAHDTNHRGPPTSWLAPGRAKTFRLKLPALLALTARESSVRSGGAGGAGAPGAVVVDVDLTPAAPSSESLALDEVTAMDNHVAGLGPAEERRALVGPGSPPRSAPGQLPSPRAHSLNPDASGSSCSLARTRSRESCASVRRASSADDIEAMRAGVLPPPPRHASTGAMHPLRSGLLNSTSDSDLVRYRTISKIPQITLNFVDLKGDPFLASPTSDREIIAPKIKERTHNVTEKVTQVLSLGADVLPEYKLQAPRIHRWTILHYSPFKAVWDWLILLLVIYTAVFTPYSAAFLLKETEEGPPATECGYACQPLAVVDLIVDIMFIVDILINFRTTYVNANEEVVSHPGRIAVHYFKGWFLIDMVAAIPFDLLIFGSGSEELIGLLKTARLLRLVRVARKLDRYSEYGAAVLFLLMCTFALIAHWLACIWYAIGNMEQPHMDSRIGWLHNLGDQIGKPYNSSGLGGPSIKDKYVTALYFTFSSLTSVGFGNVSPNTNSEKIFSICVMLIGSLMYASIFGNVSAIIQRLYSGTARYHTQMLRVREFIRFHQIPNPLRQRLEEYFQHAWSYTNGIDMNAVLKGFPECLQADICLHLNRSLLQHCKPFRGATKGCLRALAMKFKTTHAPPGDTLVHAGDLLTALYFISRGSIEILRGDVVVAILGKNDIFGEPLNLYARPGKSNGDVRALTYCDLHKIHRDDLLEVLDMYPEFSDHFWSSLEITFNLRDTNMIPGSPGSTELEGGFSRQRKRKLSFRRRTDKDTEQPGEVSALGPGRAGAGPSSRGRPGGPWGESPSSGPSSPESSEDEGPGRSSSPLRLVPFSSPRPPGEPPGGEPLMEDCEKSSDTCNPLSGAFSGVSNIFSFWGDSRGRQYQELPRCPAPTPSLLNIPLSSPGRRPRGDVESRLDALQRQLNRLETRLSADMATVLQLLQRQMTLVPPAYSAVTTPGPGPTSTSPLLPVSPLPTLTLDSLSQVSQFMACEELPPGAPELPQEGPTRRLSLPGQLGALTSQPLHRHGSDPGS

[14] = Clearance in rat hepatocytes assessed per million cells; format: ADME, cell-based, Hepatocyte; conditions: read-out: CLH
C6 = experiment: Antitumor activity against rat C6 cells xenografted in nude mouse assessed as tumor growth inhibition at 12.5 to 50 mg/kg bid for 22 days; format: functional; conditions: dose mg/kg 12.5-50
Calu-6 [15] = experiment: Antitumor activity against human Calu6 cells xenografted in nude mouse assessed as tumor growth inhibition at 12.5 mg/kg bid; format: functional; conditions: read-out: TGI
Calu-6 [16] = experiment: Antitumor activity against human Calu6 cells xenografted in nude mouse assessed as tumor growth inhibition at 50 mg/kg bid; format: functional; conditions: read-out: TGI
LoVo = experiment: Antitumor activity against human LoVo cells xenografted in nude mouse assessed as tumor growth inhibition at 50 mg/kg bid for 22 days; format: functional; conditions: 528 h, read-out: TGI
Mus musculus [17] = experiment: Inhibition of VEGFR2 phosphorylation in C6 cells xenografted in nude mouse lungs at 3 to 50 mg/kg bid after 10 hrs by Western blot analysis; format: functional; conditions: dose mg/kg 3-50
Mus musculus [18] = experiment: Inhibition of PDGFRbeta phosphorylation in C6 cells xenografted in nude mouse lungs at 3 to 50 mg/kg bid after 10 hrs by Western blot analysis; conditions: dose mg/kg 3-50
[19] = Clearance in rat; format: ADME, organism-based; conditions: in vivo
[20] = Half life in iv dosed rat; format: ADME, organism-based; conditions: in vivo
[21] = Oral bioavailability in rat; format: ADME, organism-based; conditions: in vivo
[22] = Chemical stability of the compound at pH 1; format: physicochemical; conditions: buffer
[23] = target: Platelet-derived growth factor receptor beta (Homo sapiens, UniProt P09619); experiment: Inhibition of PDGFRbeta phosphorylation by cell based assay
Chain of Platelet-derived growth factor receptor beta (P09619 whole entry): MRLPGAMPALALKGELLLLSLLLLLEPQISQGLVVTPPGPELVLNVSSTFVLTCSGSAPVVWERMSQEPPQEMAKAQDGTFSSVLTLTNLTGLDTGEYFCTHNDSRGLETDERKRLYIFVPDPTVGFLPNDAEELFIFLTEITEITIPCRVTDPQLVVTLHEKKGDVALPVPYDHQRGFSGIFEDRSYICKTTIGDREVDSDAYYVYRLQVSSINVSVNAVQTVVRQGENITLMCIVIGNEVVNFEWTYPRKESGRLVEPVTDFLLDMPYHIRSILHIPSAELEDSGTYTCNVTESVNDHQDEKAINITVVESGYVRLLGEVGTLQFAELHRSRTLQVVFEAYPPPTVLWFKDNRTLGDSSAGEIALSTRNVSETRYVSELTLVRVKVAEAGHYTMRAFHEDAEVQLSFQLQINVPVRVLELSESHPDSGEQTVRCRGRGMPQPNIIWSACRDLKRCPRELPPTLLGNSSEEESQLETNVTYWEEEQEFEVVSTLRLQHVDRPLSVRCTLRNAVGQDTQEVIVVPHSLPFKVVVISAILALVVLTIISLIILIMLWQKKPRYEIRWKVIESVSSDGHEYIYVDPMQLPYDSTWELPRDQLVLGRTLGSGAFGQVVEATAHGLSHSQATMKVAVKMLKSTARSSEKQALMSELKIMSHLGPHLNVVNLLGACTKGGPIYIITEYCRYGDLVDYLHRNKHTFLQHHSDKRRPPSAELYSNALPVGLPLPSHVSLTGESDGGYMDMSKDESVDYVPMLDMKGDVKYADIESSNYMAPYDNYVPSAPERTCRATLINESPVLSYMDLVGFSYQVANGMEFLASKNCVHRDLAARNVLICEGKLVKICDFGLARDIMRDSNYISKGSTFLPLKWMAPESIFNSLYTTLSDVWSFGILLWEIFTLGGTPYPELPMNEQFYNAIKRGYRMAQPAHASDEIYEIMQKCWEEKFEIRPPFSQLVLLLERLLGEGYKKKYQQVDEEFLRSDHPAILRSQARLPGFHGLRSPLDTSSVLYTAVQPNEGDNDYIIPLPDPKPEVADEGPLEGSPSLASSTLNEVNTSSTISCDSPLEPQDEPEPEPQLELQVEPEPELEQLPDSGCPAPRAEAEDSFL

[24] = target: Macrophage colony-stimulating factor 1 receptor (Homo sapiens, UniProt P07333); experiment: Inhibition of CSF1R phosphorylation by cell based assay
Chain of Macrophage colony-stimulating factor 1 receptor (P07333 whole entry): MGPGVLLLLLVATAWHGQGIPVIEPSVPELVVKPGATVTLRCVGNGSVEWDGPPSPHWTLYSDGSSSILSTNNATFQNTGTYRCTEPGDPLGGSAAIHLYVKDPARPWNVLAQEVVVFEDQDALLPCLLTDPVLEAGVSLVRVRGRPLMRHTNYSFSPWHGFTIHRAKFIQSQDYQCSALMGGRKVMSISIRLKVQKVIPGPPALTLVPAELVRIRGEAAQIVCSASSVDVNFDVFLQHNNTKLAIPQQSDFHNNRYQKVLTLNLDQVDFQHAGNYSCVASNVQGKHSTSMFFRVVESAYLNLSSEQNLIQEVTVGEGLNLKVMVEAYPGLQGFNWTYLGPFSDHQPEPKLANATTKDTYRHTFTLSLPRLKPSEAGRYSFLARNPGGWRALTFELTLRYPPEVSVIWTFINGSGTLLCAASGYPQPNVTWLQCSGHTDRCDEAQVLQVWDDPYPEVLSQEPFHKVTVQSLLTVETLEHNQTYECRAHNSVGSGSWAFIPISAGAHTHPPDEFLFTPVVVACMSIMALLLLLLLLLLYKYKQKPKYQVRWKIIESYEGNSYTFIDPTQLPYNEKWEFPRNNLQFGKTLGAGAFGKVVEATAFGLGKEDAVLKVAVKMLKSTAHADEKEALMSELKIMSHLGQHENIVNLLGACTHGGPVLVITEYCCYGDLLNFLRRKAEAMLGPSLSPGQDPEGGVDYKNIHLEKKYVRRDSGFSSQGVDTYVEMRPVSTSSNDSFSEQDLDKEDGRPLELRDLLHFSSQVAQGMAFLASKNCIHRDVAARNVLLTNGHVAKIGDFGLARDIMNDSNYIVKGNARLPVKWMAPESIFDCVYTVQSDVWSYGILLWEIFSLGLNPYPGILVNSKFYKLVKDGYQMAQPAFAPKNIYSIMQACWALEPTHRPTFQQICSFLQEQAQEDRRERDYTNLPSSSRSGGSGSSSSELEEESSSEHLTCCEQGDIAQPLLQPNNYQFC

[25] = target: T1, Receptor-type tyrosine-protein kinase FLT3 (Homo sapiens, UniProt P36888); experiment: Inhibition of FLT3 phosphorylation by cell based assay
T1 sequence (P36888 whole entry): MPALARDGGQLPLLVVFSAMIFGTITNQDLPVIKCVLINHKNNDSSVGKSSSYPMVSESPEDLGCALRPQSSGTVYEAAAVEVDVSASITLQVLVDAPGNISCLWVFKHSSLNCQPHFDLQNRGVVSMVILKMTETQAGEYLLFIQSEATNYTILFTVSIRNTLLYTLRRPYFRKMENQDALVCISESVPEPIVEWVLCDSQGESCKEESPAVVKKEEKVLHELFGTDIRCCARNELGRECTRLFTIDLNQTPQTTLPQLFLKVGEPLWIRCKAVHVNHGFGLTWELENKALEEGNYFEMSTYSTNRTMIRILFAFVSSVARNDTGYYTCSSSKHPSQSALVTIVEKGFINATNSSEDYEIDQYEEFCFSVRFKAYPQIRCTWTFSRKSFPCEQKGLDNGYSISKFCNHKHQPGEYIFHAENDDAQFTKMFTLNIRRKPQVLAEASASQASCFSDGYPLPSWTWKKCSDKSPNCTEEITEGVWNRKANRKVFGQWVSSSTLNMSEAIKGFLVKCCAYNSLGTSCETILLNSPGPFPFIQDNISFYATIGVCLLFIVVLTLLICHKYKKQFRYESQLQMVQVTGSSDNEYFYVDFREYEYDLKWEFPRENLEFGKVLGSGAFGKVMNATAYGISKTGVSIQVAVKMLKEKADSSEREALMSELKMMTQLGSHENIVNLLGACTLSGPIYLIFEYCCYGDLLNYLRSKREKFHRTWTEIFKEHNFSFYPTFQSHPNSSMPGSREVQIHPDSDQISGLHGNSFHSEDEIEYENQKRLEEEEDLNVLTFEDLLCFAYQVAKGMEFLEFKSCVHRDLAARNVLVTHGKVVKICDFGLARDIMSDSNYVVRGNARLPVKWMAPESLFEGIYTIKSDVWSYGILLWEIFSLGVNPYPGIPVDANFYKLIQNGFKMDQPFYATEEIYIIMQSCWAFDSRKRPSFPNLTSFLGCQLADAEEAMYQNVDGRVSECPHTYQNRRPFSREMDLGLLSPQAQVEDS

[26] = target: Platelet-derived growth factor receptor alpha (Homo sapiens) (UniProt P16234); experiment: Inhibition of PDGFRalpha phosphorylation by cell based assay
Chain of Platelet-derived growth factor receptor alpha (Homo sapiens) (P16234 whole entry): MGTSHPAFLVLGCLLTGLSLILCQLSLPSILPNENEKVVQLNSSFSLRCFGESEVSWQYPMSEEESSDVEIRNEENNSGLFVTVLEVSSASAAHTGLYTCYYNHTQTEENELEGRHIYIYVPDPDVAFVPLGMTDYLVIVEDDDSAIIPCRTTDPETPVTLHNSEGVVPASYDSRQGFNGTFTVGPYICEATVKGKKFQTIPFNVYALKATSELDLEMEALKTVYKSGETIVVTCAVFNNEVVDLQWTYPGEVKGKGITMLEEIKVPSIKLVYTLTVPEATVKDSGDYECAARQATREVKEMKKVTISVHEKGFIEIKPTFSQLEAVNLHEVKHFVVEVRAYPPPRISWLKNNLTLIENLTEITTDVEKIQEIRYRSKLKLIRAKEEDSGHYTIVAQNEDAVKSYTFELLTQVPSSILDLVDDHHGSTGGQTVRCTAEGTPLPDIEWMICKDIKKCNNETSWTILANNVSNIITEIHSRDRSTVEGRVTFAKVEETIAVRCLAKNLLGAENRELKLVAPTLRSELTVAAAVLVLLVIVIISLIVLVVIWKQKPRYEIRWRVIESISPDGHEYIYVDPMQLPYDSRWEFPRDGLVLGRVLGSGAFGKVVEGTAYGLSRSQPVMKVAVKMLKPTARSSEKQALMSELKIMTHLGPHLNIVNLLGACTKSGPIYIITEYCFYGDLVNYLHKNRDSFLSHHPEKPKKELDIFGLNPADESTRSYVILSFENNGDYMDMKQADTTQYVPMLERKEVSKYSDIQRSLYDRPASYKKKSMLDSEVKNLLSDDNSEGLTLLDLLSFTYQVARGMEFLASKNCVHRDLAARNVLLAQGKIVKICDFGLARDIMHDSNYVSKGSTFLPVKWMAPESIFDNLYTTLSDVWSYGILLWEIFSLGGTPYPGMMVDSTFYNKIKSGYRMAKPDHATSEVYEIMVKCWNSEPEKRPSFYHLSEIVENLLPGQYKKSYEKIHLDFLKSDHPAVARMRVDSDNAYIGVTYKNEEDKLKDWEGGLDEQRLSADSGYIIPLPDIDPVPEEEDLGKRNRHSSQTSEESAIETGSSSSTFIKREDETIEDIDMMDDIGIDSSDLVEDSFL

[27] = target: Vascular endothelial growth factor receptor 2 (Homo sapiens) (UniProt P35968); experiment: Inhibition of VEGFR2 phosphorylation by cell based assay
[28] = Clearance in dog at 3 mg/kg, iv; format: ADME, organism-based, Canis lupus familiaris; design: dose 3 mg/kg, route intravenous; conditions: in vivo
[29] = Clearance in dog at 10 mg/kg, po; format: ADME, organism-based, Canis lupus familiaris; design: dose 10 mg/kg, route oral; conditions: in vivo
[30] = Volume of distribution at steady state in dog at 3 mg/kg, iv; format: ADME, organism-based, Canis lupus familiaris; design: dose 3 mg/kg, route intravenous; conditions: in vivo, read-out: Vdss
[31] = Oral bioavailability in rat at 2.7 mg/kg; format: ADME, organism-based; conditions: in vivo
[32] = Oral bioavailability in dog at 10 mg/kg; format: ADME, organism-based, Canis lupus familiaris; conditions: in vivo
[33] = Terminal half life in dog at 3 mg/kg, iv; format: ADME, organism-based, Canis lupus familiaris; design: dose 3 mg/kg, route intravenous; conditions: in vivo, read-out: beta t1/2 (converted)
[34] = Half life in dog at 2.7 mg/kg, po; format: ADME, organism-based, Canis lupus familiaris; design: dose 2.7 mg/kg, route oral; conditions: in vivo
[35] = Half life in dog at 3 mg/kg, po; format: ADME, organism-based, Canis lupus familiaris; design: dose 3 mg/kg, route oral; conditions: in vivo
Mus musculus [36] = experiment: Inhibition of PDGFRalpha phosphorylation in rat C6 cells xenografted in po dosed nude mouse after 6 hrs; format: functional, organism-based
Mus musculus [37] = experiment: Inhibition of PDGFRalpha phosphorylation in rat C6 cells xenografted in nude mouse at 3 mg/kg, po; format: functional, organism-based; design: dose 3 mg/kg; conditions: TDE = time-dependent effect

Chain of Cytochrome P450 2C9 (P11712 whole entry): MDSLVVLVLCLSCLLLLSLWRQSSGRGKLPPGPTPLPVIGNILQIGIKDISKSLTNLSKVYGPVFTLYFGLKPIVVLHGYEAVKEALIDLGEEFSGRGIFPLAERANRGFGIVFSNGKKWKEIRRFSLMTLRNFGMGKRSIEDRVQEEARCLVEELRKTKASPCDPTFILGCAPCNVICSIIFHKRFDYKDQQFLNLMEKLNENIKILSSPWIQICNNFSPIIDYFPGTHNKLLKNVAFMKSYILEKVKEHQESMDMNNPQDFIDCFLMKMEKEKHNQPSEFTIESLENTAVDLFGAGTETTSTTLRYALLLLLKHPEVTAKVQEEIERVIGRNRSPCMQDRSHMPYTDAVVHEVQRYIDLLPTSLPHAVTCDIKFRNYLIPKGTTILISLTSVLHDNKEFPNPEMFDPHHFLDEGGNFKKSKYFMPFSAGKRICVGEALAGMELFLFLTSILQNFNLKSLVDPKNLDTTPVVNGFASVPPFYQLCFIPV

`COc1cc2ncnc(Oc3ccc(CC(=O)Nc4cnn(C(C)C)c4)cc3)c2cc1OC` [listing 1 of 2 here] gave an IC50 (Cytochrome P450 2C9) of 8 µM, a clearance [1] of 8.9 mL/min/kg and a QH (Rattus norvegicus) of 6%. For the same molecule, the clearance [2] was 3.3 mL/min/kg, the QH (Canis familiaris) was 9% and the Vd [3] was 0.8 L/kg. It also gave a Vd [4] of 0.9 L/kg, a half-life [5] of 1.3 h and a half-life [6] of 4.2 h. It also gave a half-life [7] of 6 h, a half-life [8] of 6.8 h and a bioavailability [9] of 34%. The bioavailability [10] was 23%, the fraction unbound [11] was 0.033 and the fraction unbound [12] was 0.07. The IC50 [13] was 137 µM, the hepatocyte CLint [14] was 3.5 µL/min/1e6 cells and the TGI (C6) was 64%. The inhibition in vivo at 12.5 mg/kg (Calu-6 [15]) was 72%, the inhibition in vivo at 50 mg/kg (Calu-6 [16]) was 81% and the inhibition in vivo at 50 mg/kg (LoVo) was 67%. The “inhibition (INH)” value (Mus musculus [17]) was 60% and the “inhibition (INH)” value (Mus musculus [18]) was 60%.

With `COc1cccc(NC(=O)Cn2cc(Oc3ncnc4cc(OC)c(OCCN5CCCCC5)cc34)cn2)c1` the clearance [19] was 75 mL/min/kg, the half-life [20] was 0.4 h and the bioavailability [21] was less than 20%. The Stability [22] was 0.1 days, the IC50 [23] was 0.003 µM and the IC50 [24] was 0.4 µM. The IC50 [25] was 0.01 µM, the inhibition [26] was “Active” and the IC50 [27] was 0.031 µM.

In the case of `COc1cc2ncnc(Oc3ccc(CC(=O)Nc4cnn(C(C)C)c4)cc3)c2cc1OC.O=P(O)(O)O`, the clearance [28] is reported as 1.7 mL/min/kg, the CL/F [29] is reported as 5.2 mL/min/kg and the Vd [30] is reported as 0.7 L/kg. For the same molecule, the bioavailability [31] was greater than 90%, the bioavailability [32] was greater than 90% and the half-life [33] was 4.7 h. For the same molecule, the half-life [34] was 4.3 h and the half-life [35] was 6.8 h.

With `COc1cc2ncnc(Oc3ccc(CC(=O)Nc4cnn(C(C)C)c4)cc3)c2cc1OC` [listing 2 of 2 here] the INH [26] was 2 nM, the inhibition (Mus musculus [36]) was “Dose-dependent effect” and the inhibition (Mus musculus [37]) was “tde”.
